Reference: patent US20260242359A1, “IRHOM2 INHIBITORS AND USES THEREOF” (NEW YORK SOCIETY FOR THE RELIEF OF THE RUPTURED AND …, priority 2023, published 2026)

Test system: PMA-induced release of endogenous TGFα from human PC3 prostate cancer cells
Test: Example 17: ELISA-based TGFα release assay, PMA-induced, PC3 prostate cancer cells
Assay type: cell-based
Settings: 10 μM final concentration, PMA 25 ng/ml, delta Buffer stimulated vs unstimulated = 100% inhibition; for inhibition at 10 µM: Homo sapiens
Procedure: In the following study, ELISA-based TGFα release assays were performed to analyze the inhibitory effects of Compounds 1, 2, 3, 4, 5, and 7 on PMA-induced release of endogenous TGFα, from human PC3 prostate cancer cells. The ELISA-based TGFα release assay that was used in this example is described below.
In brief, on day 1, Nunc black MaxiSorp® 96-well plates (Thermo Fisher Scientific, USA) were coated overnight with 100 μl per well of goat anti-human TGFα capture antibody (provided as part of the DuoSet ELISA kit) at 0.4 μg/ml TBS at 4° C.
75,000 PC3 (European Collection of Authenticated Cell Cultures, UK) cells in 100 μl of normal growth medium were seeded in each well of F-bottom 96-well cell culture plates (Corning, USA) and incubated at 37° C., 5% CO2 overnight. On day 2, the capture antibody solution was removed and MaxiSorp® plates were blocked with 300 μl per well of TBS, 1% BSA at room temperature for 5 hours. Meanwhile, cells were washed twice with PBS and pre-incubated in 80 μl of OptiMEM medium with 20 μl per well of OptiMEM medium supplemented with Batimastat (BB94, Abcam, UK) at 50 μM as positive control (for a final concentration of 10 μM in the resulting 100 μl sample volume), compounds of the invention at 50 μM (for a final concentration of 10 μM in the resulting 100 μl sample volume) and in case of Buffer stimulated and unstimulated controls with DMSO (Carl Roth, Germany) at 50 μM (for a final concentration of 10 μM in the resulting 100 μl sample volume) at 37° C., 5% CO2 for 30 minutes. Subsequently, cells (except those for unstimulated controls) were stimulated with 20 μl per well of PMA (Sigma-Aldrich, USA) at 150 ng/ml in OptiMEM for a final concentration of 25 ng/ml at 37° C., 5% CO2 for 2 hours. In parallel, blocking buffer was removed from the MaxiSorp® plates and plates were washed 4 times with 350 μl TBS-T (Carl Roth, Germany) per well on a 96-head plate washer (Tecan Group, Switzerland). To avoid drying-up, 20 μl TBS were added to each well of the MaxiSorp® plates immediately, followed by the transfer of 80 μl cell-free supernatant per sample. Additionally, 100 μl recombinant human TGFα protein (provided as part of the DuoSet ELISA kit) diluted in TBS at defined concentrations were added to the plate as standard references. Thereafter, 100 μl biotinylated goat anti-human TGFα detection antibody (provided as part of the DuoSet ELISA kit) at 37.5 ng/ml in TBS were added per well and, protected from direct light, plates were incubated at room temperature for 2 hours. After 4 times washing with 350 μl TBS-T (Carl Roth, Germany) per well on a 96-head plate washer (Tecan Group, Switzerland) and careful removal of all buffer traces after the fourth cycle, 100 μl streptavidin-AP (R&D Systems, USA) diluted 1:10,000 in TBS were added to each well and, again protected from direct light, plates were incubated at room temperature for 30 minutes. Following another round of 4 times washing with 350 μl TBS-T (Carl Roth, Germany) per well on a 96-head plate washer (Tecan Group, Switzerland) and careful removal of all buffer traces after the fourth cycle, 100 μl AttoPhos substrate solution (Promega, USA) per well was added for incubation in the dark at room temperature for 1 hour. Using an infinite M1000 (Tecan Group, Switzerland) microplate reader, the fluorescence of each well was collected at an excitation wavelength of 435 nm and an emission wavelength of 555 nm.
The delta between Buffer stimulated and Buffer unstimulated was defined 100% inhibition.

SMILES	inhibition of PMA-induced release of TGFα from PC3 cells (2 hours) [%]	inhibition at 10 µM (PC-3, 2 h) [%]	inhibition at 10 µM (PC-3, 2 hours) [%]
CNC(=O)[C@H](Cc1ccccc1)NC(=O)[C@H](CC(C)C)[C@H](CSc1cccs1)C(=O)NO [Batimastat, reference compound]	102.5	104	
CCC(=O)NCCc1c(/C=C2/C(=O)NC(=O)N(c3ccc(C)cc3C)C2=O)[nH]c2ccccc12 [Compound 1]			25.5
CCOC(=O)c1ccc(Nc2nc3nonc3n3nnnc23)cc1 [Compound 2]		9.1	
O=C(c1c(Cl)cccc1Cl)N1CCC(Cc2ccc(F)cc2)CC1 [Compound 3]		12.5	
Cc1c(C(=O)NCc2cccs2)sc(=O)n1Cc1ccccc1 [Compound 4]		14.1	
Cc1c(C(=O)NCc2cccs2)sc(=O)n1Cc1ccccc1F [Compound 5]		11.3	
Cc1c(C(=O)NCc2ccco2)sc(=O)n1Cc1ccccc1F [Compound 7]		27.3	
